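Growth conditions: 96-well plates. Treatment: test compound, 48 hours, 5 concentrations. Analysis: linear interpolation between bracketing concentrations; unreached endpoints set to highest concentration. Abbreviation: GI50, concentration required for 50% inhibition of growth.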 Activity calls are given as the source filed them. Rule as the data show it: active = GI50 up to about 1.1 µM and inactive = higher.
Assays:
Test in all cases: NCI-60 cell line screen, 48 h
ACHN = tested on: ACHN
CCRF-CEM = tested on: CCRF-CEM
EKVX = tested on: EKVX
HOP-62 = tested on: HOP-62
Hs-578T = tested on: Hs-578T
K562 = tested on: K562
LOX IMVI = tested on: LOX IMVI
MCF7 = tested on: MCF7
MOLT-4 = tested on: MOLT-4
NCI-H522 = tested on: NCI-H522
NCI/ADR-RES = tested on: NCI/ADR-RES
OVCAR-3 = tested on: OVCAR-3
OVCAR-4 = tested on: OVCAR-4
SF-539 = tested on: SF-539
SK-MEL-5 = tested on: SK-MEL-5
SK-OV-3 = tested on: SK-OV-3
SNB-19 = tested on: SNB-19
SNB-75 = tested on: SNB-75
SW-620 = tested on: SW-620

Row | SMILES | GI50 (ACHN) | GI50 (CCRF-CEM) | GI50 (EKVX) | GI50 (HOP-62) | GI50 (Hs-578T) | GI50 (K562) | GI50 (LOX IMVI) | GI50 (MCF7) | GI50 (MOLT-4) | GI50 (NCI-H522) | GI50 (NCI/ADR-RES) | GI50 (OVCAR-3) | GI50 (OVCAR-4) | GI50 (SF-539) | GI50 (SK-MEL-5) | GI50 (SK-OV-3) | GI50 (SNB-19) | GI50 (SNB-75) | GI50 (SW-620)
1 | Cc1c(C#N)c2nnn(-c3ccc(Cl)cc3)c(=O)n2c1-c1ccccc1 | 0.929 µM (active) | 0.0991 µM (active) | 0.237 µM (active) | 0.108 µM (active) | 0.158 µM (active) | 0.0586 µM (active) | 0.221 µM (active) | 0.42 µM (active) | 0.063 µM (active) | 0.0586 µM (active) | 0.0693 µM (active) | 0.047 µM (active) | 0.351 µM (active) | 0.0492 µM (active) | 0.0605 µM (active) | 0.145 µM (active) | 0.195 µM (active) | 0.275 µM (active) | 0.113 µM (active)
2 | N#CCc1nc(Cc2ccccc2)n[nH]1 | > 100 µM (inactive) | > 100 µM (inactive) | > 100 µM (inactive) | > 100 µM (inactive) | > 100 µM (inactive) | > 100 µM (inactive) | > 100 µM (inactive) | > 100 µM (inactive) | > 100 µM (inactive) | > 100 µM (inactive) | > 100 µM (inactive) | > 100 µM (inactive) | > 100 µM (inactive) | > 100 µM (inactive) | > 100 µM (inactive) | > 100 µM (inactive) | > 100 µM (inactive) | > 100 µM (inactive) | > 100 µM (inactive)
3 | OC/C=C/[C@H](OCc1ccccc1)[C@H](/C=C/CO)OCc1ccccc1 | 49.3 µM (inactive) | 20.1 µM (inactive) | 47.6 µM (inactive) | 49.7 µM (inactive) | 47.4 µM (inactive) | 24.8 µM (inactive) | 20.4 µM (inactive) | 33.1 µM (inactive) | 13.7 µM (inactive) | 37.3 µM (inactive) | 32.4 µM (inactive) | 39.7 µM (inactive) | 29.8 µM (inactive) | > 100 µM (inactive) | 27.9 µM (inactive) | > 100 µM (inactive) | 31.2 µM (inactive) | 32.7 µM (inactive) | 39.9 µM (inactive)
4 | C=C(O)c1ccccc1C#Cc1ccccc1C(=O)OC | > 10 µM (inactive) | > 10 µM (inactive) | > 10 µM (inactive) | > 10 µM (inactive) | > 10 µM (inactive) | > 10 µM (inactive) | > 10 µM (inactive) | > 10 µM (inactive) | > 10 µM (inactive) | > 10 µM (inactive) | > 10 µM (inactive) | > 10 µM (inactive) | > 10 µM (inactive) | > 10 µM (inactive) | > 10 µM (inactive) | > 10 µM (inactive) | > 10 µM (inactive) | 3.66 µM (inactive) | > 10 µM (inactive)
5 | O=C1C=CC[C@H](/C=C/C[C@@H](O)C[C@H](O)/C=C/c2ccccc2)O1 | 14.6 µM (inactive) | 3.74 µM (inactive) | 12 µM (inactive) | 16.5 µM (inactive) | 19.3 µM (inactive) | 10.9 µM (inactive) | 2.92 µM (inactive) | 12.4 µM (inactive) | 14 µM (inactive) | 4.25 µM (inactive) | 19.1 µM (inactive) | 11.5 µM (inactive) | 14.6 µM (inactive) | 9.89 µM (inactive) | 13.7 µM (inactive) | 15 µM (inactive) | 19.2 µM (inactive) | 13.6 µM (inactive) | 13.5 µM (inactive)
6 | COc1ccc2c3c([nH]c2c1)[C@H]1C[C@H]2[C@H](C[C@@H](O)[C@H](OC)[C@H]2C(=O)O)CN1CC3 | > 100 µM (inactive) | > 100 µM (inactive) | > 100 µM (inactive) | > 100 µM (inactive) | 62.8 µM (inactive) | > 100 µM (inactive) | > 100 µM (inactive) | > 100 µM (inactive) | > 100 µM (inactive) | > 100 µM (inactive) | > 100 µM (inactive) | > 100 µM (inactive) | > 100 µM (inactive) | > 100 µM (inactive) | > 100 µM (inactive) | > 100 µM (inactive) | > 100 µM (inactive) | > 100 µM (inactive) | > 100 µM (inactive)
